Laboratory results: patent US11077090B2, “Compounds and compositions and uses thereof” (Sunovion Pharmaceuticals Inc., priority 2016, dated 2021)

system: compound-treated mice; assay: Neuropharmacological assay (SmartCube): behavioral activity signature and minimal effective dose; assay type: in vivo; conditions: Mus musculus, ip, MED = dose having 50% or more total activity, read-out: Potency: minimal effective dose (MED)
From the text: Neurosci. 2011 Sep. 9; 5:103 (doi: 10.3389/fnins.2011.00103) (“Roberds”). As reported in Roberds, because psychiatric diseases generally result from disorders of cell-cell communication or circuitry, intact systems are useful in detecting improvement in disease-relevant endpoints. These endpoints are typically behavioral in nature, often requiring human observation and interpretation. To facilitate testing of multiple compounds for behavioral effects relevant to psychiatric disease, PsychoGenics, Inc. (Tarrytown, N.Y., “PGI”) developed SmartCube™, an automated system in which behaviors of compound-treated mice are captured by digital video and analyzed with computer algorithms. (D. Brunner et al., Drug Discov. Today 2002, 7:S107-S112). PGI Analytical Systems uses data from SmartCube™ to compare the behavioral signature of a test compound to a database of behavioral signatures obtained using a large set of diverse reference compounds. (The composition of the database as well as validation of the method is further described in Roberds). In this way, the neuropharmacological effects of a test compound can be predicted by similarity to major classes of compounds, such as antipsychotics, anxiolytics and antidepressants.
The SmartCube™ system produces an activity signature indicating the probability that the activity of the test compound at the administered dose matches a given class of neuropharmacological agents. (See, e.g., Roberds, FIGS. 2 and 3). The test compound is simultaneously compared against multiple classes of agents; thus, a separate probability is generated for each behavioral effect measured (e.g., anxiolytic activity, analgesic activity, etc.). In the table below, these probabilities are reported for each behavioral effect measured as follows:
where LOQ is the limit of quantification.
Provided compounds were dissolved in a mixture of Pharmasolve™ (N-methyl-2-pyrrolidone), polyethylene glycol and propylene glycol, and were injected i.p. 15 min. before the behavioral test. For each compound, injections were administered at 3 different doses. For each behavioral effect measured, results for the most efficacious dose(s) are presented. In the table below, DP: anti-depressant; AX: anxiolytic; SD: sedative hypnotic; PS: anti-psychotic; MS: mood stabilizer; AD: ADHD; CE: cognitive enhancer; AG: analgesic; UN: uncharacterized CNS activity.
The potency of many of the compounds in the table was also determined in the SmartCube™ system. Test compounds were routinely examined at dose levels of 0.3, 1, 3, 10 and 30 mg per kg (mpk), although the dose range was increased or decreased if necessary to obtain a full dose response curve. A compound's minimal effective dose (MED) is a measure of the compounds potency. The MED was defined as the dose (in mpk) having 50% or more total activity in SmartCube.

Compound	minimal effective dose [mg/kg]
C[C@@H]1OCc2ccccc2[C@@H]1N.Cl (relative stereo) [Example 72, cis-3-methylisochroman-4-amine hydrochloride]	3 to 10
C[C@@H]1OCc2ccccc2[C@H]1N.Cl (relative stereo) [Example 73, trans-3-methylisochroman-4-amine hydrochloride]	< 3
Cc1ccc2c(c1)[C@H](N)[C@H](C)COC2.Cl (relative stereo) [Example 74, cis-4,7-dimethyl-1,3,4,5-tetrahydrobenzo [c]oxepin-5-amine hydrochloride]	10 to 30
Cc1ccc2c(c1)[C@H](N)[C@@H](C)COC2.Cl (relative stereo) [Example 75, trans-4,7-dimethyl-1,3,4,5-tetrahydrobenzo [c]oxepin-5-amine hydrochloride]	10 to 30
Cc1ccc2c(c1)[C@H](N)[C@H](C)OC2.Cl (relative stereo) [Example 76, cis-3,6-Dimethylisochroman-4-amine hydrochloride]	< 3
Cc1ccc2c(c1)[C@@H](N)[C@H](C)OC2.Cl (relative stereo) [Example 77, trans-3,6-Dimethylisochroman-4-amine hydrochloride]	< 3
CC[C@H]1OCc2ccc(C)cc2[C@@H]1N.Cl (relative stereo) [Example 99, trans-3-Ethyl-6-methylisochroman-4-amine hydrochloride]	3 to 10
CC[C@@H]1OCc2ccc(C)cc2[C@@H]1N.Cl (relative stereo) [Example 100, cis-3-Ethyl-6-methylisochroman-4-amine hydrochloride]	< 3
C[C@@H]1OC[C@H](N)c2ccccc21.Cl (relative stereo) [Example 104, cis-1-Methylisochroman-4-amine hydrochloride]	3 to 10

same assay, conditions: i.p. 15 min before test, most efficacious dose(s)

Compound	AD: ADHD (probability of activity signature)	AG: analgesic (probability of activity signature)	AX: anxiolytic (probability of activity signature)	CE: cognitive enhancer (probability of activity signature)	DP: anti-depressant (probability of activity signature)	MS: mood stabilizer (probability of activity signature)	PS: anti-psychotic (probability of activity signature)	SD: sedative hypnotic (probability of activity signature)	UN: uncharacterized CNS activity (probability of activity signature)
C[C@@H]1OCc2ccccc2[C@@H]1N.Cl (relative stereo) [Example 72, cis-3-methylisochroman-4-amine hydrochloride]	+ (LOQ ≤ + <5%)	++ (5% ≤ ++ <25%)	++ (5% ≤ ++ <25%)	++ (5% ≤ ++ <25%)	++ (5% ≤ ++ <25%)	+ (LOQ ≤ + <5%)	++ (5% ≤ ++ <25%)	++ (5% ≤ ++ <25%)	+++ (25% ≤ +++ <50%)
C[C@@H]1OCc2ccccc2[C@H]1N.Cl (relative stereo) [Example 73, trans-3-methylisochroman-4-amine hydrochloride]	+ (LOQ ≤ + <5%)	++ (5% ≤ ++ <25%)	+++ (25% ≤ +++ <50%)	++ (5% ≤ ++ <25%)	++ (5% ≤ ++ <25%)	+ (LOQ ≤ + <5%)	++ (5% ≤ ++ <25%)	+ (LOQ ≤ + <5%)	+++ (25% ≤ +++ <50%)
Cc1ccc2c(c1)[C@H](N)[C@H](C)COC2.Cl (relative stereo) [Example 74, cis-4,7-dimethyl-1,3,4,5-tetrahydrobenzo [c]oxepin-5-amine hydrochloride]	+ (LOQ ≤ + <5%)	++ (5% ≤ ++ <25%)	++ (5% ≤ ++ <25%)	+ (LOQ ≤ + <5%)	++ (5% ≤ ++ <25%)	+ (LOQ ≤ + <5%)	+ (LOQ ≤ + <5%)	+ (LOQ ≤ + <5%)	+++ (25% ≤ +++ <50%)
Cc1ccc2c(c1)[C@H](N)[C@@H](C)COC2.Cl (relative stereo) [Example 75, trans-4,7-dimethyl-1,3,4,5-tetrahydrobenzo [c]oxepin-5-amine hydrochloride]	+ (LOQ ≤ + <5%)	++ (5% ≤ ++ <25%)	++ (5% ≤ ++ <25%)	++ (5% ≤ ++ <25%)	+ (LOQ ≤ + <5%)	+ (LOQ ≤ + <5%)	++ (5% ≤ ++ <25%)	+ (LOQ ≤ + <5%)	+++ (25% ≤ +++ <50%)
Cc1ccc2c(c1)[C@H](N)[C@H](C)OC2.Cl (relative stereo) [Example 76, cis-3,6-Dimethylisochroman-4-amine hydrochloride]	+ (LOQ ≤ + <5%)	++ (5% ≤ ++ <25%)	++ (5% ≤ ++ <25%)	++ (5% ≤ ++ <25%)	++ (5% ≤ ++ <25%)	+ (LOQ ≤ + <5%)	++ (5% ≤ ++ <25%)	+ (LOQ ≤ + <5%)	+++ (25% ≤ +++ <50%)
Cc1ccc2c(c1)[C@@H](N)[C@H](C)OC2.Cl (relative stereo) [Example 77, trans-3,6-Dimethylisochroman-4-amine hydrochloride]	+ (LOQ ≤ + <5%)	++ (5% ≤ ++ <25%)	++ (5% ≤ ++ <25%)	++ (5% ≤ ++ <25%)	++ (5% ≤ ++ <25%)	+ (LOQ ≤ + <5%)	++ (5% ≤ ++ <25%)	+ (LOQ ≤ + <5%)	+++ (25% ≤ +++ <50%)
CC[C@H]1OCc2ccc(C)cc2[C@@H]1N.Cl (relative stereo) [Example 99, trans-3-Ethyl-6-methylisochroman-4-amine hydrochloride]	+ (LOQ ≤ + <5%)	++ (5% ≤ ++ <25%)	+++ (25% ≤ +++ <50%)	++ (5% ≤ ++ <25%)	++ (5% ≤ ++ <25%)	+ (LOQ ≤ + <5%)	++ (5% ≤ ++ <25%)	+ (LOQ ≤ + <5%)	+++ (25% ≤ +++ <50%)
CC[C@@H]1OCc2ccc(C)cc2[C@@H]1N.Cl (relative stereo) [Example 100, cis-3-Ethyl-6-methylisochroman-4-amine hydrochloride]	+ (LOQ ≤ + <5%)	++ (5% ≤ ++ <25%)	++ (5% ≤ ++ <25%)	++ (5% ≤ ++ <25%)	++ (5% ≤ ++ <25%)	+ (LOQ ≤ + <5%)	+++ (25% ≤ +++ <50%)	++ (5% ≤ ++ <25%)	+++ (25% ≤ +++ <50%)
C[C@@H]1OC[C@H](N)c2ccccc21.Cl (relative stereo) [Example 104, cis-1-Methylisochroman-4-amine hydrochloride]	+ (LOQ ≤ + <5%)	++ (5% ≤ ++ <25%)	++ (5% ≤ ++ <25%)	++ (5% ≤ ++ <25%)	++ (5% ≤ ++ <25%)	+ (LOQ ≤ + <5%)	++ (5% ≤ ++ <25%)	++ (5% ≤ ++ <25%)	+++ (25% ≤ +++ <50%)
